From ChEMBL document CHEMBL3639112, “Modulators of calcium release-activated calcium channel and methods for treatment of non-small cell lung cancer” (2015) come the findings set out here.

The assay deals with Calcium release-activated calcium channel protein 1 (Homo sapiens, UniProt Q96D31). The assay is described as follows: Inhibition Assay: Inhibition of CRAC channels was determined following thapsigargin (Sigma, Cat # T9033) induced endoplasmic calcium release in Jurkat cells. (see Yasurio Yonetoky et. al Bio. & Med. Chem. 14 (2006) 4750-4760). Cells were centrifuged and resuspended in equal volumes f Ca2+ and Mg2+ free Hanks buffer and Fluo-8 NW dye (ABD Bioquest, Inc., Sunnyvale, Calif.) loading solution at 2x10^5 cells/100 ul/well in 96-well black plate. Plate is incubated at 37 C./5% CO2 […] followed by further […] at room temperature. Test compounds (DMSO stocks diluted in Ca2+ and Mg2+ free Hanks buffer) at desired concentrations were added to the wells and […]. Thapsigargin (1 uM final concentration) was added to the wells and incubated for 15 min to inhibit the Sarco-endoplasmic reticulum Ca2+ ATPase pump thereby depleting endoplasmic calcium and raising cytosolic calcium concentrations. Store-operated calcium entry was initiated by adding extracellular Ca2+. Type of assay: cell-based.
Chain of Calcium release-activated calcium channel protein 1 (Q96D31 whole entry): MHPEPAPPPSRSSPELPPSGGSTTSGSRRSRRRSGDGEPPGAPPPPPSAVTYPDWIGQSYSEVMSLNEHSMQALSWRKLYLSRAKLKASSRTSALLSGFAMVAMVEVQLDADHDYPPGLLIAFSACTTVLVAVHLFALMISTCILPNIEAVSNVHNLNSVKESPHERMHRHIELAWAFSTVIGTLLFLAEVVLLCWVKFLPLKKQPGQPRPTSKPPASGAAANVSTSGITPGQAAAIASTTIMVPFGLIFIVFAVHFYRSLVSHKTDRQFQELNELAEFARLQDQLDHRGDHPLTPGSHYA

The term IC50 denotes the point on the concentration scale where inhibition reaches its midpoint. For `O=C(Cc1ccc2ncccc2c1)Nc1ccc(-n2nc(C3CC3)cc2C2CC2)cc1`, the IC50 amounted to 147 nM.

Take `O=C(Nc1ccc(-n2nc(C(F)(F)F)cc2C2CC2)cc1)c1ccc2ncccc2c1`: the IC50 was 86.1 nM.
